Reference: the supplement of paper PMC10307832

compound: C1CCC(CC1)N(CCNCCC2=C3C(=C(C=C2)O)NC(=O)CO3)C(=O)CCNCCC4=CC(=C(C=C4)Cl)Cl [AZ505] + Cc1nc(NC(=O)N2CCC[C@H]2C(N)=O)sc1-c1ccnc(C(C)(C)C(F)(F)F)c1 [Alpelisib] (partner 2 µM); assay: relative viability (nuclei count vs DMSO), 5 days (fraction); higher = more cells survive; details: first compound 8 µM
Procedure, shortened: (§1)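 Values are medians from duplicate plates. Each reflects relative viability, defined as the nuclei count of treated wells over that of vehicle wells. Lung cancer cell lines in 1536-well plates were pin-tool dosed one day after seeding with one drug alone or with a fixed anchor-drug dose plus five library-drug doses (not always all listed) in √10 steps, then fixed, stained and imaged at 4× after 5 days.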

Going from HCC-44 to A549, the relative viability falls from 0.869 to 0.795.

Going from LU99A to HCC-78, the relative viability falls from 0.493 to 0.462.

Going from NCI-H1299 to NCI-H1563, the relative viability falls from 0.998 to 0.915.

With ABC-1 the relative viability was 1.02.

compound: Cn1c(=O)n(-c2ccc(C(C)(C)C#N)cc2)c2c3cc(-c4cnc5ccccc5c4)ccc3ncc21 [Dactolisib] + CC(=O)Nc1cccc(-n2c(=O)n(C3CC3)c(=O)c3c(Nc4ccc(I)cc4F)n(C)c(=O)c(C)c32)c1 [Trametinib] (partner 0.02 µM); assay: as above; details: first compound 0.002 µM
Procedure, shortened: as §1

Compared with NCI-H2342, NCI-H1650 is lower in relative viability: 0.825 for the first, 0.63 for the second.

Going from NCI-H1993 to SK-LU-1, the relative viability falls from 0.514 to 0.476.

Going from NCI-H838 to LCLC-103H, the relative viability rises from 0.456 to 0.664.

First: NCI-H520
Second: NCI-H2126
The relative viability of the first is higher: 0.61 for the first, 0.557 for the second.

First: EMC-BAC-2
Second: NCI-H2085
The relative viability of the first is higher: 0.897 for the first, 0.712 for the second.

Going from HCC-366 to NCI-H1666, the relative viability rises from 0.367 to 0.855.

Compared with NCI-H596, LK-2 is lower in relative viability: 0.776 for the first, 0.609 for the second.

Going from NCI-H2087 to NCI-H1648, the relative viability rises from 0.229 to 0.467.

Going from SK-MES-1 to H3255, the relative viability rises from 0.581 to 0.657.

First: COR-L23
Second: COR-L 105
The relative viability of the first is higher: 0.602 for the first, 0.43 for the second.

First: LOU-NH91
Second: ChaGo-K-1
The relative viability of the first is lower: 0.778 for the first, 0.846 for the second.

First: NCI-H2170
Second: NCI-H2405
The relative viability of the first is higher: 0.925 for the first, 0.469 for the second.

Compared with HOP-62, HCC-44 is higher in relative viability: 0.429 for the first, 1.14 for the second.

First: NCI-H522
Second: LU99A
The relative viability of the first is higher: 0.69 for the first, 0.527 for the second.

First: SW 900
Second: HCC-78
The relative viability of the first is higher: 0.923 for the first, 0.726 for the second.

same assay, conditions: first compound 0.006325 µM

First: NCI-H2342
Second: NCI-H727
The relative viability of the first is higher: 0.72 for the first, 0.42 for the second.

First: NCI-H1650
Second: NCI-H1993
The relative viability of the first is higher: 0.614 for the first, 0.455 for the second.

First: SK-LU-1
Second: NCI-H838
The relative viability of the first is higher: 0.657 for the first, 0.35 for the second.

Compared with LCLC-103H, NCI-H520 is lower in relative viability: 0.604 for the first, 0.585 for the second.

Compared with NCI-H2126, EMC-BAC-2 is higher in relative viability: 0.548 for the first, 0.866 for the second.

First: NCI-H2085
Second: HCC-366
The relative viability of the first is higher: 0.455 for the first, 0.299 for the second.

Compared with NCI-H1666, NCI-H596 is lower in relative viability: 0.804 for the first, 0.7 for the second.

Going from LK-2 to NCI-H2087, the relative viability falls from 0.761 to 0.217.

Going from NCI-H1648 to SK-MES-1, the relative viability rises from 0.434 to 0.528.

Going from H3255 to COR-L23, the relative viability falls from 0.58 to 0.453.

Going from COR-L 105 to LOU-NH91, the relative viability rises from 0.413 to 0.714.

First: ChaGo-K-1
Second: NCI-H2170
The relative viability of the first is higher: 0.912 for the first, 0.881 for the second.

Compared with NCI-H2405, HOP-62 is lower in relative viability: 0.665 for the first, 0.349 for the second.

Going from HCC-44 to NCI-H522, the relative viability falls from 1.13 to 0.678.

Compared with LU99A, SW 900 is higher in relative viability: 0.493 for the first, 0.718 for the second.

For HCC-78, the relative viability was 0.851.

same assay, conditions: first compound 0.02 µM

Compared with NCI-H2342, NCI-H727 is lower in relative viability: 0.811 for the first, 0.358 for the second.

Compared with NCI-H1650, NCI-H1993 is higher in relative viability: 0.503 for the first, 0.504 for the second.

Going from SK-LU-1 to NCI-H838, the relative viability falls from 0.392 to 0.34.

First: LCLC-103H
Second: NCI-H520
The relative viability of the first is higher: 0.581 for the first, 0.354 for the second.

Compared with NCI-H2126, EMC-BAC-2 is higher in relative viability: 0.433 for the first, 0.839 for the second.

Going from NCI-H2085 to HCC-366, the relative viability falls from 0.241 to 0.238.

Compared with NCI-H1666, NCI-H596 is lower in relative viability: 0.835 for the first, 0.496 for the second.

First: LK-2
Second: NCI-H2087
The relative viability of the first is higher: 0.554 for the first, 0.214 for the second.

Going from NCI-H1648 to SK-MES-1, the relative viability falls from 0.647 to 0.467.

First: H3255
Second: COR-L23
The relative viability of the first is higher: 0.507 for the first, 0.305 for the second.

First: COR-L 105
Second: LOU-NH91
The relative viability of the first is lower: 0.4 for the first, 0.679 for the second.

Going from ChaGo-K-1 to NCI-H2170, the relative viability falls from 0.91 to 0.845.

Compared with NCI-H2405, HOP-62 is lower in relative viability: 0.56 for the first, 0.369 for the second.

Going from HCC-44 to NCI-H522, the relative viability falls from 1.08 to 0.921.

First: LU99A
Second: SW 900
The relative viability of the first is lower: 0.4 for the first, 0.746 for the second.

With HCC-78 the relative viability was 0.69.

same assay, conditions: first compound 0.06325 µM

Going from NCI-H2342 to NCI-H727, the relative viability falls from 0.538 to 0.401.

Going from NCI-H1650 to NCI-H1993, the relative viability rises from 0.339 to 0.389.

Compared with SK-LU-1, NCI-H838 is lower in relative viability: 0.34 for the first, 0.179 for the second.

Compared with LCLC-103H, NCI-H520 is lower in relative viability: 0.515 for the first, 0.147 for the second.

Going from NCI-H2126 to EMC-BAC-2, the relative viability rises from 0.38 to 0.461.

Going from NCI-H2085 to HCC-366, the relative viability falls from 0.266 to 0.107.

Going from NCI-H1666 to NCI-H596, the relative viability falls from 0.734 to 0.491.

Compared with LK-2, NCI-H2087 is lower in relative viability: 0.225 for the first, 0.127 for the second.

Going from NCI-H1648 to SK-MES-1, the relative viability falls from 0.387 to 0.355.

First: H3255
Second: COR-L23
The relative viability of the first is higher: 0.539 for the first, 0.176 for the second.

Going from COR-L 105 to LOU-NH91, the relative viability rises from 0.425 to 0.557.

Going from ChaGo-K-1 to NCI-H2170, the relative viability falls from 0.813 to 0.478.

Going from NCI-H2405 to HOP-62, the relative viability falls from 0.389 to 0.23.

First: HCC-44
Second: NCI-H522
The relative viability of the first is higher: 0.952 for the first, 0.504 for the second.

Going from LU99A to SW 900, the relative viability rises from 0.286 to 0.516.

HCC-78 was tested, and the relative viability was 0.445.

same assay, conditions: first compound 0.2 µM

First: NCI-H2342
Second: NCI-H727
The relative viability of the first is higher: 0.54 for the first, 0.373 for the second.

First: NCI-H1650
Second: NCI-H1993
The relative viability of the first is lower: 0.22 for the first, 0.421 for the second.

Going from SK-LU-1 to NCI-H838, the relative viability falls from 0.283 to 0.145.

Going from LCLC-103H to NCI-H520, the relative viability falls from 0.42 to 0.102.

Compared with NCI-H2126, EMC-BAC-2 is higher in relative viability: 0.306 for the first, 0.375 for the second.

Compared with NCI-H2085, HCC-366 is lower in relative viability: 0.231 for the first, 0.101 for the second.

Going from NCI-H1666 to NCI-H596, the relative viability falls from 0.742 to 0.298.

Compared with LK-2, NCI-H2087 is lower in relative viability: 0.21 for the first, 0.114 for the second.

First: NCI-H1648
Second: SK-MES-1
The relative viability of the first is lower: 0.24 for the first, 0.263 for the second.

Compared with H3255, COR-L23 is lower in relative viability: 0.455 for the first, 0.144 for the second.

Compared with COR-L 105, LOU-NH91 is higher in relative viability: 0.394 for the first, 0.612 for the second.

First: ChaGo-K-1
Second: NCI-H2170
The relative viability of the first is higher: 0.791 for the first, 0.35 for the second.

Going from NCI-H2405 to HOP-62, the relative viability falls from 0.253 to 0.195.

Going from HCC-44 to NCI-H522, the relative viability falls from 0.737 to 0.512.
